How the values were obtained:
domestic short hair cats = assay: two-bottle choice test, cat water panel; assay type: in vivo, Felis catus; settings: for intake of compound solution compared to water: n = 24, 18 h, CaCl2 at 8 mM; for preference for umami amino acid mix with compound vs amino acid mix alone: n = 24, mix 15 mM L-His, 15 mM L-Trp, 15 mM L-Phe
Protocol: Healthy neutered adult domestic short hair cats (Felis catus) formed the panel for all the choice tests described here (n = 24). […] All the cats taking part in the panel were individually fed dry adult cat food twice per day to their individual Maintenance Energy Requirements (MER). On test days, the cats were housed during 18 h overnight in purpose-built, behaviourally-enriched lodges. During the 18 h exposure, the cats only had access to the water solutions in the two-bottle testing apparatus, however they had free access to drinking water for the rest of the day when they were housed in a social group within an environmentally enriched room. All accommodation complied with the Code of Practice for Animal (Scientific Procedures) Act 1986. All solutions were made with deionised water (Purite, UK). All taste-active substances were food-grade or of the highest available purity. In some cases, salts were purchased instead of the pure compound due to solubility, stability or availability reasons. The in vivo testing was a two-bottle choice test and the methodology was adapted from[23]. All animal studies were in alignment with the Mars Animal Research Policy (Mars.com). These studies follow the 3Rs approach to experimentation with animals in scientific research[59] and were approved by the Waltham Animal Welfare and Ethical Review Board, and all the methods were carried-out in accordance with local guidelines and regulations, including the ARRIVE guidelines. […] The drinkers contained the test solution or the control solution, and the position of the drinkers presented to the cats was changed every day to control for any side bias, and each solution was offered twice to each cat. The cats were also offered at the same time as the water solutions, 50% of their daily food allowance. After 30 min. the food was removed and the cats were left in their individual lodges overnight, with access to the drinkers for 18 h. The next day the drinkers were weighed, and the remaining quantities were recorded as refused amounts. Total intakes were calculated using the difference of the offered and refused amounts. A correction for evaporation and any solution spillage was also performed on each data point. Using a bespoke statistical analysis toolkit, based on R software (R Foundation, Vienna, Austria), a mixed model analysis was performed on the difference in intake (g) between water solutions containing the different taste compound, including cat (random) as a factor and weighting by grouped cat specific variability. This was used to test the mean intake difference versus 0, i.e. no difference, at a 5% level. The mean difference in intake was reported with a 95% confidence interval. All individual tests were then combined into a single model and the difference between the tastant pairs (i.e. both conditions containing the kokumi tastant in water vs. in the umami amino acid mix) were directly compared to measure the impact of the compound on the intake of either water or the umami mix. Any data errors (e.g. following manual error such as solution spillage, overflow) were removed from the final data set for analysis.

hCaSR = target: T1, hCaSR (Homo sapiens, UniProt P41180); assay: hCaSR transiently expressed in HEK293/natClytin, agonist luminescence assay; assay type: cell-based; settings: transiently expressed hCaSR; > 3 mM = maximal response not reached; read-out: hCaSR EC50
T1 construct: expressed in transfected cells; host or cells: HEK293/natClytin (transient, pcDNA6 as delivered by GeneArt)
T1 sequence (P41180 20-1078): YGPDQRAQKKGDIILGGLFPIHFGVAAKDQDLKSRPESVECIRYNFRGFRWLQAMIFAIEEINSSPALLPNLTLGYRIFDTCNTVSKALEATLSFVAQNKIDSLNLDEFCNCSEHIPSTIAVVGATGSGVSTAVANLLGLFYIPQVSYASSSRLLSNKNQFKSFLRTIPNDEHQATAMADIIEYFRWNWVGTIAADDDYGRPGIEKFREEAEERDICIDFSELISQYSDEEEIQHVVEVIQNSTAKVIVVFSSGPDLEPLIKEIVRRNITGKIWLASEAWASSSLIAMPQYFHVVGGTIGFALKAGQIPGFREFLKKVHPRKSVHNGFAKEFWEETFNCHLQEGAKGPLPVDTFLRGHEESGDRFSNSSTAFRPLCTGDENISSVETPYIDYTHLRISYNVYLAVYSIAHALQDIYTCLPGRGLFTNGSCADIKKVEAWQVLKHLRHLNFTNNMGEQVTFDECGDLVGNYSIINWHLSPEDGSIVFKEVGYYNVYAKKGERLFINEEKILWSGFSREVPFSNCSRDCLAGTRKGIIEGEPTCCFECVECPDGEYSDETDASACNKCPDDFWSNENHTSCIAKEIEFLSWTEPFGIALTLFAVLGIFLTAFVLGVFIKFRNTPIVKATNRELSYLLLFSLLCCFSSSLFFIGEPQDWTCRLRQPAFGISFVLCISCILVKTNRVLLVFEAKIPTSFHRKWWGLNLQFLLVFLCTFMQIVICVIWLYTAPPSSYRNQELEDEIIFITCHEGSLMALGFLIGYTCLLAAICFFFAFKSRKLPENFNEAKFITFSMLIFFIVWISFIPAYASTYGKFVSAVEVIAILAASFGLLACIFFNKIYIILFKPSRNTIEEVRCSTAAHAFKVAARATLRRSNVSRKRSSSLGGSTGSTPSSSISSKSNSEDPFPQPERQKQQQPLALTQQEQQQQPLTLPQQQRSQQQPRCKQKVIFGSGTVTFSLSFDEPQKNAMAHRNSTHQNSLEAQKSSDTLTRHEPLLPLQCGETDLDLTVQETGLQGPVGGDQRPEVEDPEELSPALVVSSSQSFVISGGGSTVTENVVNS
Protocol: The coding sequence of the Felis catus[52] and Homo sapiens[53] CaSR gene was synthesised by GeneArt (Thermo Fisher Scientific). The cat coding sequence was excised from the GeneArt construct and inserted in pcDNA3.1 for constitutive and transient expression or pcDNA5/ TO for inducible expression. For the human sequence the pcDNA6 vector as delivered by GeneArt was used without further sub-cloning.
All transient transfections were performed with Lipofectamine 2000 (Invitrogen) according to the manufacturer’s protocol.

Row | EC50 (hCaSR) [mM] | Structure (SMILES) | intake of compound solution compared to water (domestic short hair cats) | preference for umami amino acid mix with compound vs amino acid mix alone (domestic short hair cats)
1 | 3.9 | [Cl-].[Cl-].[Mg+2] [Mg^2+, MgCl2] | significantly lower acceptance | significantly rejected
2 | > 3 | N[C@@H](CCC(=O)N[C@@H](CS)C(=O)NCC(=O)O)C(=O)O [Glutathione] | significantly lower acceptance | no statistically significant difference
3 | 0.8 | [Ca+2].[Cl-].[Cl-] [Ca^2+, CaCl2] | no significant difference | significant preference

Source: article PMC8131363 (Scientific Reports, 2021)
